According to US20140315972A1, “RS)-2-(2-oxo-4-phenylpyrrolidin-1-yl)acetamide compound having modulatory activity with a commensurate effect, pharmaceutical substance (variants) and its application, composition (variants) thereof” (priority 2011, published 2014):
Marks after values point to notes of the source that are not given here.

Tests used:
rats [1] = assay: Hypotensive activity in rats (cannula in carotid artery); assay type: in vivo; conditions: adult rats; i.p. and intragastric 50-100 mg/kg; one hour after administration
Method: Study of the effect of Phenotropil on cerebral blood flow, systemic blood pressure (BP) and the nervous regulation of blood circulation was made on 6 anesthetized cats under general anesthesia (urethane+chloralose). Phenotropil was administered intravenously at a dose of 50 mg/kg with distilled water; the baseline state of each animal prior to drug administration served as control. Cerebral blood flow was recorded in the common carotid artery (CCA) by an electromagnetic meter. The nervous regulation of cerebral circulation was judged by the vasomotor pressor reflex (VPR). The results of the experiment show (Table 6.1) that the racemic compound causes a moderate increase in cerebral blood flow in anesthetized animals. The cerebrovascular effect is accompanied by vascular hypotension with manifestation of oppression of the vasomotor reflex. The biphasic behaviour of SBP is consistent with the pattern of the effect on TSIP under no abnormalities with stabilization of the normotonic state. At intraperitoneal and intragastric administration of Phenotropil (25-300 mg/kg) to white outbred adult rats of both sexes, hypotensive activity (by blood method through the cannula connected to the carotid artery) was manifested one hour after administration at doses of 50-100 mg/kg and was in average 13%±2.85, while with increasing doses this effect disappears. […]

male subjects = assay: Anti-seasick (anti-kinetosis) activity, visual-vestibular effects; assay type: in vivo, human
Method: Investigations of the anti-seasick (anti-kinetosis) activity of agents with creation of visual-vestibular effects modeling motion sickness were performed on male subjects (23-35 years). Test with continuous exposure to the Coriolis acceleration was performed by rotating vestibulometric chair with angular velocity 180°/s. The eyes of the subject were open, while the optokinetic drum rotated in one direction with the chair with a speed of 90°/s. The time of visual-vestibular effect, vestibulo-vegetative reactions, optokinetic nystagmus before and after kinesia was determined when the drum rotated alternately for two minutes in the R- and S-directions at a speed of 90° s, with a break for 1 minute between rotations, as well as the severity of vestibular effects was measured and the Km was calculated. The studies were conducted 60 minutes after administration of Phenotropil in doses of 25, 50, 100 and 300 mg. Baseline state values and placebo values served as control. Alternate approaches for each participant were performed a week after each previous test. The modulation factor under normal conditions without exposure was 0.97.

rats [2] = assay: Hemorrhagic stroke (intracerebral post-traumatic hematoma), McGrow scale; assay type: in vivo
From the text: The stroke condition was simulated in male rats (270-320 g) at a local cerebral hemorrhage, as a hemorrhagic stroke (intracerebral post-traumatic hematoma) by the method of A. N. Makarenko et al (1990) and at cerebral ischemia with distal occlusion of the middle cerebral artery (Chen S. T., Hsu C. Y., Hogan E. L., Maricq H., Balentine J. D. A model of focal ischemic stroke in the rat reproducible extensive cortical infarction//Stroke.—1989, V. 17, No 4, p. 738-743) as an ischemic stroke. Phenotropil was injected intraperitoneally at hemorrhagic stroke at 100 mg/kg immediately after surgery, and one hour before and two hours after the surgery (at doses of 100, 200 and 300 mg/kg) at ischemic stroke. Control animals were treated adequately with distilled water.

[3] = male subjects, 25, 50, 100, 300 mg
[4] = rats, hemorrhagic stroke, 100 mg/kg i.p., 1 day after surgery

For `NC(=O)CN1CC(c2ccccc2)CC1=O` (racemic) [Compound 1, (RS)-2-(2-oxo-4-phenylpyrrolidine-1-yl)acetamide], the “hypotensive activity, average” value (rats [1]) was 13%±2.85, the “NEE, negative effects of exposure” value (male subjects; humans, 25-300 mg) was 22.5 ± 7.5 min and the “VVE, tolerability of the visual-vestibular effects” value (male subjects; humans, 25-300 mg) was 7.70 ± 0.6 min. For the same compound, the “VVR, severity of the vestibulo-vegetative reactions” value (male subjects; humans, 25-300 mg) was 2.3 ± 0.9 points, the “improvement of visual-vestibular tolerability vs placebo, average” value (male subjects; [3]) was “+80%” and the “reduction in severity of vestibulo-vegetative reactions vs placebo, average” value (male subjects; [3]) was 68%. For the same compound, the “duration of negative consequences condition” value (male subjects; male subjects, placebo 4-6 hours) was 15 to 30 min, the “prevention of lethal outcomes, % of cases” value (rats [2]; hemorrhagic and ischemic stroke in rats, follow up 14 days) was 100% and the “% of animals with circling movements” value (rats [2]; [4]) was 0* %. The “% of animals with lethargy, slowness of movement” value (rats [2]; [4]) was 30%, the “% of animals with paralysis of 1-4 limbs” value (rats [2]; [4]) was 0* % and the “% of animals with paresis of 1-4 limbs” value (rats [2]; [4]) was 20* %. The “% of animals with weakness of limbs” value (rats [2]; [4]) was 30* % and the Mortality (rats [2]; [4]) was 0* %.
